Data on 1 compound can be found in patent US20220265685A1, “METHODS AND COMPOSITIONS FOR IMPROVING COGNITIVE FUNCTION” (priority 2010, published 2022).

One test has as its system aMCI subjects. The test is described as follows: fMRI activity of medial temporal lobe subregions during the explicit 3-alternative forced choice task. Type of test: in vivo, human. To be noted: levetiracetam 125 mg twice a day for two weeks vs placebo. The protocol: A within-subjects trial of 8 weeks duration, involving 17 amnestic MCI (aMCI) subjects and 17 age-matched controls with a low dose treatment of levetiracetam is conducted. During the course of the study, each aMCI subject receives both drug and placebo treatments separately in two periods of two weeks each, with the order of treatments among different aMCI subjects counterbalanced (see FIG. 3). Age-matched control subjects treated with placebo serve as a further control. Cognitive testing and fMRI imaging data are obtained from the subjects after each two week period of drug/placebo treatment.
As described above, the drug treatment period is the two weeks preceding Visit 1 or 2 (with the two week period preceding the other Visit being the placebo phase). For the subjects receiving the drug treatment, half a scored 250 mg tablet of levetiracetam is used to achieve a dose of […], which is approximately 3.6 mg/kg/day (assuming an average adult human weight of 70 kg).
Imaging data are obtained through high-resolution methods developed in the Stark laboratory. […]
Group data are analyzed using a two-way Analysis of Variance (ANOVA) with trial types and group as fixed factors, and subject as a random factor nested within group. […]

Test [1] addresses synaptic vesicle protein 2A (SV2A) (Homo sapiens, UniProt Q7L0J3). Particulars: Noyer et al. 1995; Fuks et al. 2003; Lynch et al. 2004; Gillard et al. 2006; cited from earlier work.

Sequence of synaptic vesicle protein 2A (SV2A) (Q7L0J3 whole entry, species assumed): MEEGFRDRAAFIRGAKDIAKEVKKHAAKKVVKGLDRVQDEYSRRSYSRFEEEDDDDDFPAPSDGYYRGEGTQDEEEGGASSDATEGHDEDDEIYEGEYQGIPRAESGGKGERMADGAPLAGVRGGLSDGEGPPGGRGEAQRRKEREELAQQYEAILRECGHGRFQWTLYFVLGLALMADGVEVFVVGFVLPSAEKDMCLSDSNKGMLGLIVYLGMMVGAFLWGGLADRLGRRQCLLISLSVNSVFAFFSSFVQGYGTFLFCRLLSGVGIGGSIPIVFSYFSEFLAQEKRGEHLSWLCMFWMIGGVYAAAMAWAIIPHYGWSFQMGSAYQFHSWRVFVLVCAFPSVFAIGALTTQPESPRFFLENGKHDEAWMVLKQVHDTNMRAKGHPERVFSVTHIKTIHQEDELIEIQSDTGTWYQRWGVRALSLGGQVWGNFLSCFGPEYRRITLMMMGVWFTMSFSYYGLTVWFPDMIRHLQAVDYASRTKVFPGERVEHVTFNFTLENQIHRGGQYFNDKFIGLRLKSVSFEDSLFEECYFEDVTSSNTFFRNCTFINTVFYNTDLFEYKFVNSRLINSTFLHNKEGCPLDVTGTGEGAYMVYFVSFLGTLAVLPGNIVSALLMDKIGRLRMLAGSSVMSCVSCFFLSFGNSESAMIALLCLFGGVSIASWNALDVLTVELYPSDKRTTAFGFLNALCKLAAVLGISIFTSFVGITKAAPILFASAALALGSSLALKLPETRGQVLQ

`CC[C@@H](C(N)=O)N1CCCC1=O` [levetiracetam, (2S)-2-(2-oxopyrrolidin-1-yl) butanamide]: the “entorhinal cortex (EC) activity during memory judgments” value with aMCI subjects is “increases EC activity”. For the same compound, the “DG/CA3 activity during lure stimuli correctly identified as "similar"” value with aMCI subjects (p=0.037) is listed as “reduces DG/CA3 hyper-activity”. The “binding to SV2A” value in test [1] is listed as “binds to a specific site in the CNS: the synaptic vesicle protein 2A (SV2A)”.
